Test results from patent US20230107642A1 (Erasca, Inc., priority 2020, published 2023).

biological target: T1, Cys12 of the KRAS 4B G12C protein (Homo sapiens, UniProt P01116, G12C); experiment: In vitro covalent adduct formation (CAF) assay, LC-MS intact mass; format: binding; conditions: 10 uM compound, 60 min
T1 construct: This protein contained 188 amino acids in total, including an N-terminal 6-Histidine tag; made in house; host or cells: E. coli BL21
Method in brief: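 GDP-loaded (>95%) His-TEV-tagged KRAS 4B G12C (residues 1–169), 5 μM in TBS pH 7.4, incubated with 10 μM compound (4% DMSO) at 22° C for one hour. Intact-protein LC-MS gave free:adduct ratios, reported as percent protein modified; duplicate runs.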

Compound	% CAF 10 uM @ 60 min
C=CC(=O)N1C[C@H](C)N(c2nc(=O)n3c4c(c(-c5ccc(F)cc5)c(C(F)(F)F)cc24)SC[C@@H]3CN2C[C@@H]3C[C@H]2CO3)C[C@H]1C [Example 1351, (S)-3-(((1S,4S)-2-oxa-5-azabicyclo[2.2.1]heptan-5-yl)methyl)-7-((2S,5R)-4-acryloyl-2,5-dimethylpiperazin-1-yl)-10-(4-fluorophenyl)-9-(trifluoromethyl)-2,3-dihydro-5H-[1,4]thiazino[2,3,4-ij]quinazolin-5-one]	64.8%
C=CC(=O)N1[C@H](C)CN(c2nc(=O)n3c4c(c(-c5ccc(F)cc5F)c(C(F)(F)F)cc24)SC[C@@H]3CN2CCN(C3CC3)CC2)C[C@@H]1C (atropisomer, axis not shown) [Example 1347, (3S,10S)-7-((3S,5R)-4-acryloyl-3,5-dimethylpiperazin-1-yl)-3-((4-cyclopropylpiperazin-1-yl)methyl)-10-(2,4-difluorophenyl)-9-(trifluoromethyl)-2,3-dihydro-5H-[1,4]thiazino[2,3,4-ij]quinazolin-5-one]	89.7%
C=CC(=O)N1[C@@H]2CC[C@H]1CN(c1nc(=O)n3c4c(c(-c5cc(Cl)c(F)cc5F)c(Cl)cc14)SC[C@@H]3CN1CCN(CC)CC1)C2 [Example 1400, (3S)-7-((1R,5S)-8-acryloyl-3,8-diazabicyclo[3.2.1]octan-3-yl)-9-chloro-10-(5-chloro-2,4-difluorophenyl)-3-((4-ethylpiperazin-1-yl)methyl)-2,3-dihydro-5H-[1,4]thiazino[2,3,4-ij]quinazolin-5-one]	43.7%
C=CC(=O)N1C2CCC1CN(c1nc(=O)n3c4c(c(-c5cc(Cl)c(F)cc5F)c(C(F)(F)F)cc14)SC[C@@H]3COC)C2 [Example 1395, (3S,10S)-7-((1R,5S)-8-acryloyl-3,8-diazabicyclo[3.2.1]octan-3-yl)-10-(5-chloro-2,4-difluorophenyl)-3-(methoxymethyl)-9-(trifluoromethyl)-2,3-dihydro-5H-[1,4]thiazino[2,3,4-ij]quinazolin-5-one]	17.3%
(3S,10S)-7-((2S,5R)-4-acryloyl-2,5-dimethylpiperazin-1-yl)-10-(5-chloro-2,4-difluorophenyl)-3-((4-cyclopropylpiperazin-1-yl)methyl)-9-(trifluoromethyl)-2,3-dihydro-5H-[1,4]thiazino[2,3,4-ij]quinazolin-5-one [Example 1361]	29.8%
C=CC(=O)N1CCN(c2nc(=O)n3c4c(c(-c5cc(Cl)c(F)cc5F)c(C(F)(F)F)cc24)SC[C@@H]3CN2CCN(C3CC3)CC2)CC1 (atropisomer, axis not shown) [Example 1356, (3S,10S)-7-(4-acryloylpiperazin-1-yl)-10-(5-chloro-2,4-difluorophenyl)-3-((4-cyclopropylpiperazin-1-yl)methyl)-9-(trifluoromethyl)-2,3-dihydro-5H-[1,4]thiazino[2,3,4-ij]quinazolin-5-one]	92.8%
C=CC(=O)N1CC2COCC(C1)N2c1nc(=O)n2c3c(c(-c4ccc(F)cc4)c(C(F)(F)F)cc13)SC[C@@H]2COC [Example 1383, (3S)-7-(7-acryloyl-3-oxa-7,9-diazabicyclo[3.3.1]nonan-9-yl)-10-(4-fluorophenyl)-3-(methoxymethyl)-9-(trifluoromethyl)-2,3-dihydro-5H-[1,4]thiazino[2,3,4-ij]quinazolin-5-one]	66%

Results, then the compound that gave them:

% CAF 10 uM @ 60 min	Compound
51%	C=CC(=O)N1[C@H](C)CN(c2nc(=O)n3c4c(c(-c5cc(Cl)c(F)cc5F)c(C(F)(F)F)cc24)SC[C@@H](N2CCCC2)C3)C[C@@H]1C (atropisomer, axis not shown) [Example 1440, (3S,11S)-8-((3S,5R)-4-acryloyl-3,5-dimethylpiperazin-1-yl)-11-(5-chloro-2,4-difluorophenyl)-3-(pyrrolidin-1-yl) 10-(trifluoromethyl)-3,4-dihydro-[1,4]thiazepino[2,3,4-ij]quinazolin-6-one]
83.7%	C=CC(=O)N1CCN(c2nc(=O)n3c4c(c(-c5cc(Cl)c(F)cc5F)c(C(F)(F)F)cc24)SC[C@@H]3COCOC)CC1 (atropisomer, axis not shown) [Example 1365]
64.9%	[2H]C([2H])=C([2H])C(=O)N1[C@H](C)CN(c2nc(=O)n3c4c(c(-c5cc(Cl)c(F)cc5F)c(C(F)(F)F)cc24)SC[C@@H]3COC)C[C@@H]1C (atropisomer, axis not shown) [Example 1392, (3S,10S)-7-((3S,5R)-4-(acryloyl-d3)-3,5-dimethylpiperazin-1-yl)-10-(5-chloro-2,4-difluorophenyl)-3-(methoxymethyl)-9-(trifluoromethyl)-2,3-dihydro-5H-[1,4]thiazino[2,3,4-ij]quinazolin-5-one]
71.6%	C=CC(=O)N1[C@H](C)CN(c2nc(=O)n3c4c(c(-c5ccc(F)c(Cl)c5)c(C(F)(F)F)cc24)SC[C@@H](N2CCOCC2)C3)C[C@@H]1C [Example 1386, (S)-8-((3S,5R)-4-acryloyl-3,5-dimethylpiperazin-1-yl)-11-(3-chloro-4-fluorophenyl)-3-morpholino-10-(trifluoromethyl)-3,4-dihydro-2H,6H-[1,4]thiazepino[2,3-4-ij]quinazolin-6-one]
95%	C=CC(=O)N1[C@H](C)CN(c2nc(=O)n3c4c(c(-c5ccc(F)cc5F)c(C(F)(F)F)cc24)SC[C@@H]3CC)C[C@@H]1C [Example 1451, (3S)-7-((3S,5R)-4-acryloyl-3,5-dimethylpiperazin-1-yl)-10-(2,4-difluorophenyl)-3-ethyl-9-(trifluoromethyl)-2,3-dihydro-5H-[1,4]thiazino[2,3,4-ij]quinazolin-5-one]
0%	C=CC(=O)N1[C@H](C)CN(c2nc(=O)n3c4c(c(-c5cccc6cnn(C)c56)c(C(F)(F)F)cc24)SC[C@@H]3CN2CCN(C3CC3)CC2)C[C@@H]1C (atropisomer, axis not shown) [Example 1411, (3S,10R)-7-((3S,5R)-4-acryloyl-3,5-dimethylpiperazin-1-yl)-3-((4-cyclopropylpiperazin-1-yl)methyl)-10-(1-methyl-1H-indazol-7-yl)-9-(trifluoromethyl)-2,3-dihydro-5H-[1,4]thiazino[2,3,4-ij]quinazolin-5-one]
93.9%	C=CC(=O)N1[C@H](C)CN(c2nc(=O)n3c4c(c(-c5cc(Cl)c(F)cc5F)c(C(F)(F)F)cc24)SC[C@@H]3CN(C)C)C[C@@H]1C (atropisomer, axis not shown) [Example 1375, (3S,10R)-7-((3S,5R)-4-acryloyl-3,5-dimethylpiperazin-1-yl)-10-(5-chloro-2,4-difluorophenyl)-3-((dimethylamino)methyl)-9-(trifluoromethyl)-2,3-dihydro-5H-[1,4]thiazino[2,3,4-ij]quinazolin-5-one]

same assay, conditions: 10 uM compound, 60 min incubation

% CAF 10 uM @ 60 min	Compound
69%	C=CC(=O)N1[C@H](C)CN(c2nc(=O)n3c4c(c(-c5cc(Cl)c(F)cc5F)c(C(F)(F)F)cc24)SC[C@H](N2CCCC2)C3)C[C@@H]1C [Example 1129, (3R)-8-((3S,5R)-4-acryloyl-3,5-dimethylpiperazin-1-yl)-11-(5-chloro-2,4-difluorophenyl)-3-(pyrrolidin-1-yl)-10-(trifluoromethyl)-3,4-dihydro-2H,6H-[1,4]thiazepino [2,3,4-ij]quinazolin-6-one]
92.4%	C=CC(=O)N1[C@H](C)CN(c2nc(=O)n3c4c(c(-c5ccc(F)cc5)c(C(F)(F)F)cc24)SC[C@H](N2CCOCC2)C3)C[C@@H]1C [Example 1112, (R)-8-((3S,5R)-4-acryloyl-3,5-dimethylpiperazin-1-yl)-11-(4-fluorophenyl)-3-morpholino-10-(trifluoromethyl)-3,4-dihydro-2H,6H-[1,4]thiazepino [2,3,4-ij]quinazolin-6-one]

same assay, conditions: 10 μM compound, after 1 hour

CAF (% after 1 hour)	Compound
94%	C=CC(=O)N1[C@H](C)CN(c2nc(=O)n3c4c(c(-c5cc(Cl)c(F)cc5F)c(C(F)(F)F)cc24)SC[C@@H](Oc2cc(C)on2)C3)C[C@@H]1C [Example 1230, (3S,11R)-8-((3S,5R)-4-acryloyl-3,5-dimethylpiperazin-1-yl)-11-(5-chloro-2,4-difluorophenyl)-3-((5-methylisoxazol-3-yl)oxy)-10-(trifluoromethyl)-3,4-dihydro-2H,6H-[1,4]thiazepino[2,3,4-ij]quinazolin-6-one]
61%	C=C(F)C(=O)N1CCN(c2nc(=O)n3c4c(c(-c5ccc(F)cc5F)c(C(F)(F)F)cc24)SC[C@@H](OC)C3)CC1 [Example 1221, (3S)-11-(2,4-Difluorophenyl)-8-(4-(2-fluoroacryloyl)piperazin-1-yl)-3-methoxy-10-(trifluoromethyl)-3,4-dihydro-2H,6H-[1,4]thiazepino[2,3,4-ij]quinazolin-6-one]
94%	C=CC(=O)N1[C@H](C)CN(c2nc(=O)n3c4c(c(-c5cc(Cl)c(F)cc5F)c(C(F)(F)F)cc24)SC[C@@H](Oc2ccncc2)C3)C[C@@H]1C [Example 1234, (3S)-8-((3S,5R)-4-acryloyl-3,5-dimethylpiperazin-1-yl)-11-(5-chloro-2,4-difluorophenyl)-3-(pyridin-4-yloxy)-10-(trifluoromethyl)-3,4-dihydro-2H,6H-[1,4]thiazepino[2,3,4-ij]quinazolin-6-one]

Compound	CAF (% after 1 hour)
C=CC(=O)N1C2COCC1CN(c1nc(=O)n3c4c(c(-c5cc(Cl)c(F)cc5F)c(C(F)(F)F)cc14)SC[C@@H](OC)C3)C2 [Example 1210, (3S)-8-(9-acryloyl-3-oxa-7,9-diazabicyclo[3.3.1]nonan-7-yl)-11-(5-chloro-2,4-difluorophenyl)-3-methoxy-10-(trifluoromethyl)-3,4-dihydro-2H,6H-[1,4]thiazepino[2,3,4-ij]quinazolin-6-one]	94%
